Measurements: US10584159B2, “Renilla based biosensors for monitoring biomolecule localization and trafficking in cells” (The Royal Institution for the Advancement of …, priority 2014, dated 2020)
Starred links: 1 amine or outer side, 2 acyl side, 3 side chain; linkers in the order of their positions; H or OH if unused. Positions of bridges follow the written chain, without caps; N, C: chain ends. Non-standard residues stand in square brackets, D forms with d. Residues, ends and D or L forms follow the SMILES beside them. No end group written: not given here. *: point of attachment. Leu(3R-OH,Nα-propionyl) = CCC(=O)N[C@H](C(=O)*)[C@H](O)C(C)C; X1 = CC(C)[C@@H](O[*:3])[C@H](N[*:1])C(=O)[*:2]; NMeT = CN[C@H](C(=O)O)[C@@H](C)O; dPhLac = O=C(O)[C@H](O)Cc1ccccc1; NMeA = CN[C@@H](C)C(=O)O; NMeDha = C=C(NC)C(=O)O

How the values were obtained:
Assay type in all cases: cell-based
AT1R [1] = target: T1, AT1R (Homo sapiens, UniProt P30556); test: AT1R sorting to rab4 vesicles BRET (AT1R-RlucII/rGFP-rab4); parameters: expressed in transfected cells; host or cells: HEK293SL (HEK293 for the screen)
T1 sequence (P30556 with tags, fused parts or gaps): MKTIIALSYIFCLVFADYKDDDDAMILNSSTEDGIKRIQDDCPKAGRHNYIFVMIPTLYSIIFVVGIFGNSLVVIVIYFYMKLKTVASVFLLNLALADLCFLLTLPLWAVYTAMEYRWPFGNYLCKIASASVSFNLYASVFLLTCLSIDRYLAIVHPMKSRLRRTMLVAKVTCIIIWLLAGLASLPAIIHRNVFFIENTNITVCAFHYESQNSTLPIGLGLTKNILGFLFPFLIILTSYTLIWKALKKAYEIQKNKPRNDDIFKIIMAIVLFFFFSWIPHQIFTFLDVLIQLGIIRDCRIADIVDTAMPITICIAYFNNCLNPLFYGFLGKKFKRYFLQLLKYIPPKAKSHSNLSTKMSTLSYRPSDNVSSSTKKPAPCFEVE
Description: (§1) BRET measurements for FIGS. 1B to 9D, 25D to 25F. The following day of transfection, cells were detached and replated onto poly-ornithine coated white 96-well plate at a density of 25,000 cells per well. The next day, cells were washed once with pre-warmed Tyrode's buffer (140 mM NaCl, 2.7 mM KCl, 1 mM CaCl2, 12 mM NaHCO3, 5.6 mM D-glucose, 0.5 mM MgCl2, 0.37 mM NaH2PO4, 25 mM HEPES, pH 7.4), and then stimulated with either various concentrations of ligands in Tyrode's buffer for the indicated time, or single concentration of ligands for various times at 37° C. For recycling experiment, after stimulating the cells with the ligands for 30 min at 37° C., they were washed either three times with ice-cold Tyrode's buffer or once with Tyrode's buffer/three times with acid (50 mM sodium citrate, pH 4.0)/two times with Tyrode's buffer. All the washing steps were performed on ice. […] The cell-permeable substrate, coelenterazine 400a was added at a final concentration of 5 μM in Tyrode's buffer 3-4 min before BRET measurements. […] The BRET signal was determined by calculating the ratio of the light intensity emitted by the GFP10 or rGFP over the light intensity emitted by the RlucII. All the BRET measurements were performed in triplicate at 37° C.

AT1R [2] = target: T1, AT1R; test: AT1R trafficking to endosomes BRET (AT1R-RlucII/rGFP-endofinFYVE); parameters: expressed in transfected cells; host or cells: HEK293SL (HEK293 for the screen)
Description: as §1
(§2) Data Analysis. Estimation of the t1/2 and the EC50 values for ligand-mediated endocytosis were calculated using the GraphPad® Prism curve fitting program The curves presented throughout this study, representing the best fits, and were generated using this GraphPad® Prism program as well.

AT1R [3] = target: T1, AT1R; test: AT1R endocytosis BRET at plasma membrane (AT1R-RlucII/lyn-rGFP); parameters: signal peptide-Flag-human AT1R (spFlag-AT1R); signal peptide (N); expressed in transfected cells; host or cells: HEK293SL (HEK293 for the screen)
Description: as §1, §2

AT1R [4] = target: T2, AT1R (Homo sapiens, UniProt P30556); test: PKN-based RhoA activation BRET assay (PKN-crib-RlucII/rGFP-CAAX) with AT1R
T2 construct: expressed in transfected cells; host or cells: HEK293SL
T2 sequence (P30556 1-359): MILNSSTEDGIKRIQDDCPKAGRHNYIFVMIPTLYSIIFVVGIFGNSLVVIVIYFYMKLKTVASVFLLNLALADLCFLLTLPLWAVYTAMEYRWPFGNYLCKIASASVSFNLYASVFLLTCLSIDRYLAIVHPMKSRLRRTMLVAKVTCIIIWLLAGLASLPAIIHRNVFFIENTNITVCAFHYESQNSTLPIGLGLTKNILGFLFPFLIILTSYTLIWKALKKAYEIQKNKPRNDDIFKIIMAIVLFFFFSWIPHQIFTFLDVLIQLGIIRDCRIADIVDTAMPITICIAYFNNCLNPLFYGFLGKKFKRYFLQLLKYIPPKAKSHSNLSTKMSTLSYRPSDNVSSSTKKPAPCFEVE
Description: as §1
PKN-based RhoA activation assay. For FIGS. 25B-D, HEK293SL cells were grown in DMEM supplemented with 6% fetal bovine serum (FBS) and 20 μg/ml gentamycin, at 37° C. Cells were seeded at a density of 7.5×10^5 cells per 100 mm dishes and were transiently transfected the next day with constructs encoding AT1R (3 μg) along with PKN-crib-RlucII (90 ng) and rGFP-CAAX (480 ng) using calcium phosphate method as described previously. After 24 h, cells were detached and seeded onto poly-ornithine-coated 96-well white plates at a density of 25 000 cells per well in media. The next day, cells were washed once with Tyrode's buffer and left in 80 μl of Tyrode's buffer at 37° C. When indicated, cells were treated with Ubo-Qic 100 nM for 30 min or C3 toxin for 3 μg/ml (in FIG. 25I), 4 hours at 37° C. Cell stimulation and BRET measurements were done at RT. BRET signals were monitored by addition of Coel-400a to a final concentration of 5 μM using a Synergy2 (BioTek®) microplate reader. […] For FIG. 25B, a transfection mix of 200 ng of TPαR, 20 ng PKN-RlucII, 600 ng CAAX-rGFP, complemented to 2 μg with ssDNA and PEI at a ratio of PEI:DNA of 3:1, is added to 3 ml of Hek293SL (350 000 cells/ml). Cells were seeded on poly-D-lysine pretreated plates. […] Cells were stimulated for 2 min with the indicated doses of U46619. […] For FIGS. 25I and J, a transfection mix of 200 ng of TPαR, 20 ng PKN-RlucII, 600 ng CAAX-rGFP, complemented to 2 μg with ssDNA and PEI at a ratio of PEI:DNA of 3:1, is added to 3 ml of Hek293SL (350,000 cells/ml). Cells were seeded on poly-D-lysine pretreated plates. 24 h post-transfection, the Rho inhibitor (CT04; Cytoskeleton, Inc) was added when indicated, overnight at final concentration 2 μg/ml. 48 h post-transfection, cells were washed and preincubated in Tyrode +1 mM CaCl2 at 37° C. for 60 min then treated, as indicated, with 100 nM of U46619 or 1 μg/ml of Rho activator II (CN03; Cytoskeleton, Inc) for 1 min at 37° C. […] BRET was measured at 37° C., using a Tristar Microplate Reader (Berthold Technologies).

[5] = 100 nM Ubo, 30 min pre-incubation

Compound | effect on AngII-bound AT1R in Rab4 vesicles (AT1R [1]; 100 nM Ubo, 100 nM AngII 10 min) | effect on DVG- and SI-mediated accumulation of receptors in endosomes (AT1R [2]; [5]) | reduction of targeting of AngII-bound AT1R to Rab5 containing endosomes (AT1R [2]; [5]) | effect on AngII-dependent AT1R internalization (AT1R [3]; [5]) | effect on AngII-mediated BRET increase (Rho sensor) (AT1R [4]; 100 nM Ubo, 100 nM AngII 70 s) | time at which BRET signal plateaued (AT1R [1]; 100 nM AngII, 100 nM SI, 1 μM DVG) [min] | time to maximal AT1R internalization into endosomes (AT1R [2]; 100 nM SI or 1 μM DVG) [min] | less efficacious than AngII at promoting AT1R concentration in early endosomes (AT1R [2]; 100 nM SI or 1 μM DVG vs 100 nM AngII) [%] | receptor accumulation in endosomes, compared to AngII (AT1R [2]; 40 min) | EC50 (AT1R [3]; FIG. 6B, 30 min, read-out: potency to promote AT1R internalization) [nM] | impact of Gq inhibition on ligand-mediated Rho activation (AT1R [4]; 100 nM Ubo-Qic 30 min, ligand 4 min)
C=C1C(=O)N[C@@H](C)C(=O)N(C)[C@@H](C)C(=O)N[C@@H]([C@H](OC(=O)[C@@H](NC(=O)CC)[C@H](O)C(C)C)C(C)C)C(=O)N(C)[C@@H]([C@@H](C)OC)C(=O)O[C@H](C(C)C)[C@H](NC(C)=O)C(=O)O[C@H](Cc2ccccc2)C(=O)N1C [Ubo-QIC] (Ac-[X1][dPhLac][NMeDha]A[NMeA][X1](Leu(3R-OH,Nα-propionyl))[NMeT](Me); ester 1-C) | increased AngII-bound AT1R in Rab 4 and Rab11 vesicles | had no effect | more than 25% | did not prevent | partially blocked |  |  |  |  |  | 
DRVYVHPG [DVG, [Asp^1,Val^5, Gly^8]-AngII] |  |  |  |  |  | 10 | 10 | 40 | promoted less receptor accumulation in endosomes | 75 | did not affect
